Assay results published in patent publication US6020341A, “Enediyne quinone imines and methods of preparation and use thereof” (priority 1997, dated 2000).
Like-named read-outs stand apart in the source and are kept apart here.

How the values were obtained:
CCRF-CEM/VM-1 cells = assay: Cytotoxicity, CCRF-CEM/VM-1; format: cell-based, human; conditions: for IC50 / IC90: Homo sapiens, CCRF-CEM; for IC90: read-out: Cytotoxic Concentration IC90
Text: (§1) | cell growth by 50% (IC50) in μM.

[1] = system: Human promyelocytic leukemic cell (HL-60); assay: Cytotoxicity, HL-60; format: cell-based
Text: as §1

[2] = system: Human acute lymphoblastic T cells (CCRF-CEM); assay: Cytotoxicity, CCRF-CEM; format: cell-based; conditions: for IC50 / IC90: Homo sapiens, CCRF-CEM; for IC90: read-out: Cytotoxic Concentration IC90
Text: as §1

CCRF-CEM/VBL cells = assay: Cytotoxicity, CCRF-CEM resistant to vinblastine; format: cell-based, human; conditions: for IC50 / IC90: Homo sapiens, CCRF-CEM; for IC90: read-out: Cytotoxic Concentration IC90
Text: as §1

[3] = system: Human breast adenocarcinoma cells (SK-Br-3); assay: Cytotoxicity, SK-Br-3; format: cell-based
Text: as §1

[4] = system: Human testicular teratocarcinoma cells (833K); assay: Cytotoxicity, 833K; format: cell-based
Text: as §1

[5] = system: Chinese hamster lung cells (DC-3F); assay: Cytotoxicity, DC-3F; format: cell-based; conditions: for IC50 / IC90: Cricetulus griseus, DC3F; for IC90: read-out: Cytotoxic Concentration IC90
Text: as §1

[6] = system: Chinese hamster lung cells resistant to actinomycin D (DC-3F/ADII); assay: Cytotoxicity, DC-3F/ADII; format: cell-based; conditions: for IC50 / IC90: Cricetulus griseus, DC3F; for IC90: read-out: Cytotoxic Concentration IC90
Text: as §1

MT2 cells = assay: Cytotoxicity, MT2; format: cell-based; conditions: Table 15, MT2
[7] = Table 14, vinblastine-resistant (VLB100)
[8] = Table 3, CCRF-CEM/VBL, EQI-6 = (1)
[9] = Table 3, CCRF-CEM/VM-1, EQI-6 = (1)
[10] = Table 4, DC-3F/ADII, EQI-6 = (1)

COc1cc([C@@H]2c3cc4c(cc3[C@@H](O[C@@H]3O[C@@H]5CO[C@@H](c6cccs6)O[C@H]5[C@H](O)[C@H]3O)[C@H]3COC(=O)[C@H]23)OCO4)cc(OC)c1O [VM26]
resistance of cell line to VM26 (CCRF-CEM/VM-1 cells; CCRF/VM1 versus CCRF/CEM): 50 fold

COc1cc(NS(C)(=O)=O)ccc1Nc1c2ccccc2nc2ccccc12 [m-AMSA, 4'-(9-acridinylamino)methanesulfon-m-anisidide]
IC50 ([1]; Homo sapiens, HL-60, Table 1, HL-60, read-out: IC50): 38.8 nM
IC50 ([1]; Homo sapiens, HL-60, Table 2, HL60, read-out: concentration required to inhibit cell growth by 50% (IC50)): 39 nM
IC50 ([1]; Homo sapiens, HL-60, Table 3, HL-60, read-out: Cytotoxic Concentration IC50): 38.8 nM
IC90 ([1]; Homo sapiens, HL-60, Table 3, HL-60, read-out: Cytotoxic Concentration IC90): 176 nM
Cytotoxic Concentration IC95 ([1]; Table 3, HL-60): 294 nM
ratio of IC50 to EQI-6 (in parentheses) ([1]; Table 3, HL-60, EQI-6 = (1)): 66.9 ×
ratio of IC90 to EQI-6 (in parentheses) ([1]; Table 3, HL-60, EQI-6 = (1)): 67.7 ×
ratio of IC95 to EQI-6 (in parentheses) ([1]; Table 3, HL-60, EQI-6 = (1)): 66.8 ×
IC50 ([2]; Table 1, CCRF-CEM, read-out: IC50): 199 nM
IC50 ([2]; Table 2, CCRF/CEM, read-out: concentration required to inhibit cell growth by 50% (IC50)): 199 nM
IC50 ([2]; Table 3, CCRF-CEM, read-out: Cytotoxic Concentration IC50): 199 nM
IC90 ([2]; Table 3, CCRF-CEM): 1540 nM
IC50 ([2]; Table 14, CCRF-CEM, read-out: Cytotoxic Concentration IC50): 129 nM
IC90 ([2]; Table 14, CCRF-CEM): 755 nM
Cytotoxic Concentration IC95 ([2]; Table 3, CCRF-CEM): 3101 nM
ratio of IC50 to EQI-6 (in parentheses) ([2]; Table 3, CCRF-CEM, EQI-6 = (1)): 398 ×
ratio of IC90 to EQI-6 (in parentheses) ([2]; Table 3, CCRF-CEM, EQI-6 = (1)): 702 ×
ratio of IC95 to EQI-6 (in parentheses) ([2]; Table 3, CCRF-CEM, EQI-6 = (1)): 838 ×
Cytotoxic Concentration IC95 ([2]; Table 14, CCRF-CEM): 1378 nM
IC50 (CCRF-CEM/VBL cells; Table 2, CCRF/VBL (MDR/pg-p), read-out: concentration required to inhibit cell growth by 50% (IC50)): 565 nM
IC50 (CCRF-CEM/VBL cells; Table 3, CCRF-CEM/VBL, read-out: Cytotoxic Concentration IC50): 565 nM
IC90 (CCRF-CEM/VBL cells; Table 3, CCRF-CEM/VBL): 2460 nM
IC50 (CCRF-CEM/VBL cells; Table 14, vinblastine-resistant (VLB100), read-out: Cytotoxic Concentration IC50): 964 nM
IC90 (CCRF-CEM/VBL cells; [7]): 7230 nM
Cytotoxic Concentration IC95 (CCRF-CEM/VBL cells; Table 3, CCRF-CEM/VBL): 4045 nM
ratio of IC50 to EQI-6 (in parentheses) (CCRF-CEM/VBL cells; [8]): 298.9 ×
ratio of IC90 to EQI-6 (in parentheses) (CCRF-CEM/VBL cells; [8]): 396 ×
ratio of IC95 to EQI-6 (in parentheses) (CCRF-CEM/VBL cells; [8]): 434.9 ×
Cytotoxic Concentration IC95 (CCRF-CEM/VBL cells; [7]): 14353 nM
IC50 (CCRF-CEM/VM-1 cells; Table 2, CCRF/VM-1 (MDR/TopoII), read-out: concentration required to inhibit cell growth by 50% (IC50)): 1710 nM
IC50 (CCRF-CEM/VM-1 cells; Table 3, CCRF-CEM/VM-1, read-out: Cytotoxic Concentration IC50): 1710 nM
IC90 (CCRF-CEM/VM-1 cells; Table 3, CCRF-CEM/VM-1): 3570 nM
IC50 (CCRF-CEM/VM-1 cells; Table 14, CCRF-CEM/VM-1, read-out: Cytotoxic Concentration IC50): 4050 nM
IC90 (CCRF-CEM/VM-1 cells; Table 14, CCRF-CEM/VM-1): 11000 nM
Cytotoxic Concentration IC95 (CCRF-CEM/VM-1 cells; Table 3, CCRF-CEM/VM-1): 4586 nM
ratio of IC50 to EQI-6 (in parentheses) (CCRF-CEM/VM-1 cells; [9]): 902.1 ×
ratio of IC90 to EQI-6 (in parentheses) (CCRF-CEM/VM-1 cells; [9]): 401.3 ×
ratio of IC95 to EQI-6 (in parentheses) (CCRF-CEM/VM-1 cells; [9]): 303 ×
Cytotoxic Concentration IC95 (CCRF-CEM/VM-1 cells; Table 14, CCRF-CEM/VM-1): 15391 nM
IC50 ([3]; Homo sapiens, SK-BR-3, Table 2, SK-Br-3 (Breast), read-out: concentration required to inhibit cell growth by 50% (IC50)): 551 nM
IC50 ([3]; Homo sapiens, SK-BR-3, Table 4, SK-Br-3, read-out: Cytotoxic Concentration IC50): 551 nM
IC90 ([3]; Homo sapiens, SK-BR-3, Table 4, SK-Br-3, read-out: Cytotoxic Concentration IC90): 84100 nM
Cytotoxic Concentration IC95 ([3]; Table 4, SK-Br-3): 464700 nM
ratio of IC50 to EQI-6 (in parentheses) ([3]; Table 4, SK-Br-3, EQI-6 = (1)): 16.2 ×
ratio of IC90 to EQI-6 (in parentheses) ([3]; Table 4, SK-Br-3, EQI-6 = (1)): 449.7 ×
ratio of IC95 to EQI-6 (in parentheses) ([3]; Table 4, SK-Br-3, EQI-6 = (1)): 139.7 ×
IC50 ([4]; Homo sapiens, 833K, Table 2, 833K (Testicular), read-out: concentration required to inhibit cell growth by 50% (IC50)): 43 nM
IC50 ([4]; Homo sapiens, 833K, Table 4, 833k, read-out: Cytotoxic Concentration IC50): 43 nM
IC90 ([4]; Homo sapiens, 833K, Table 4, 833k, read-out: Cytotoxic Concentration IC90): 189 nM
Cytotoxic Concentration IC95 ([4]; Table 4, 833k): 311 nM
ratio of IC50 to EQI-6 (in parentheses) ([4]; Table 4, 833k, EQI-6 = (1)): 6.14 ×
ratio of IC90 to EQI-6 (in parentheses) ([4]; Table 4, 833k, EQI-6 = (1)): 7.56 ×
ratio of IC95 to EQI-6 (in parentheses) ([4]; Table 4, 833k, EQI-6 = (1)): 7.97 ×
IC50 ([5]; Table 2, DC-3F, read-out: concentration required to inhibit cell growth by 50% (IC50)): 8.8 nM
IC50 ([5]; Table 4, DC-3F, read-out: Cytotoxic Concentration IC50): 8.8 nM
IC90 ([5]; Table 4, DC-3F): 53 nM
IC50 ([5]; Table 13, DC-3F, read-out: Cytotoxic Concentration IC50): 4 nM
IC90 ([5]; Table 13, DC-3F): 17 nM
Cytotoxic Concentration IC95 ([5]; Table 4, DC-3F): 97.5 nM
ratio of IC50 to EQI-6 (in parentheses) ([5]; Table 4, DC-3F, EQI-6 = (1)): 4.9 ×
ratio of IC90 to EQI-6 (in parentheses) ([5]; Table 4, DC-3F, EQI-6 = (1)): 4.8 ×
ratio of IC95 to EQI-6 (in parentheses) ([5]; Table 4, DC-3F, EQI-6 = (1)): 4.9 ×
Cytotoxic Concentration IC95 ([5]; Table 13, DC-3F): 28 nM
IC50 ([6]; Table 2, DC-3F/ADII (MDR/Actinomycin D), read-out: concentration required to inhibit cell growth by 50% (IC50)): 71 nM
IC50 ([6]; Table 4, DC-3F/ADII, read-out: Cytotoxic Concentration IC50): 70.7 nM
IC90 ([6]; Table 4, DC-3F/ADII): 825 nM
IC50 ([6]; Table 13, DC-3F/ADII, read-out: Cytotoxic Concentration IC50): 33 nM
IC90 ([6]; Table 13, DC-3F/ADII): 180 nM
Cytotoxic Concentration IC95 ([6]; Table 4, DC-3F/ADII): 1902 nM
ratio of IC50 to EQI-6 (in parentheses) [6, 10]: 12 ×
ratio of IC90 to EQI-6 (in parentheses) [6, 10]: 53.6 ×
ratio of IC95 to EQI-6 (in parentheses) [6, 10]: 88.9 ×
Cytotoxic Concentration IC95 ([6]; Table 13, DC-3F/ADII): 321 nM
IC50 (MT2 cells; Homo sapiens, read-out: Cytotoxic Concentration IC50): 19 nM
IC90 (MT2 cells; Homo sapiens, read-out: Cytotoxic Concentration IC90): 38 nM
Cytotoxic Concentration IC95 (MT2 cells): 48 nM

CC[C@]1(O)C[C@@H]2CN(CCc3c([nH]c4ccccc34)[C@@](C(=O)OC)(c3cc4c(cc3OC)N(C)[C@H]3[C@@](O)(C(=O)OC)[C@H](OC(C)=O)[C@]5(CC)C=CCN6CC[C@]43[C@@H]65)C2)C1 [vinblastin]
resistance of cell line to vinblastin (CCRF-CEM/VBL cells; CCRF/VBL100 versus CCRF/CEM): 59 fold

actinomycin D
resistance of cell line to actinomycin D ([6]; DC3F/ADII versus DC3F): 32 fold
